Test results as given in ChEMBL document CHEMBL1201862, “PubChem BioAssay data set” (2004).
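In this assay, cells in 96-well plates receive the compound at five concentrations for 48 hours. Endpoints are linearly interpolated between the surrounding concentrations. GI50 marks 50% less growth.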 Calls of active or inactive are those of the source. No stated cut-off is given here; in the data, active = GI50 up to about 1.1 µM and inactive = higher.

Legend:
Assay in all cases: growth of human tumour cells (NCI), 48 h
KM12 = system: KM12
SN12C = system: SN12C
NCI-H23 = system: NCI-H23
UO-31 = system: UO-31
HL-60 = system: HL-60
U-251 = system: U-251
NCI-H522 = system: NCI-H522
SK-OV-3 = system: SK-OV-3
RPMI-8226 = system: RPMI-8226
UACC-62 = system: UACC-62
NCI-H460 = system: NCI-H460
HOP-92 = system: HOP-92
HCC 2998 = system: HCC 2998
SW-620 = system: SW-620
HCT-116 = system: HCT-116
CCRF-CEM = system: CCRF-CEM
EKVX = system: EKVX
NCI-H226 = system: NCI-H226
SNB-75 = system: SNB-75
A498 = system: A498

CC(=O)Oc1ccc(Nn2c3ccccc3c3ccccc32)c(C)c1
GI50 (KM12): 36.6 µM (inactive)
GI50 (SN12C): 41.5 µM (inactive)
GI50 (NCI-H23): 38.2 µM (inactive)
GI50 (UO-31): 39.1 µM (inactive)
GI50 (HL-60): 22.3 µM (inactive)
GI50 (U-251): 46 µM (inactive)
GI50 (NCI-H522): 19.3 µM (inactive)
GI50 (SK-OV-3): 40.9 µM (inactive)
GI50 (RPMI-8226): 15.7 µM (inactive)
GI50 (UACC-62): 51.5 µM (inactive)
GI50 (NCI-H460): 27.7 µM (inactive)
GI50 (HOP-92): 24.5 µM (inactive)
GI50 (HCC 2998): 27.7 µM (inactive)
GI50 (SW-620): 25.2 µM (inactive)
GI50 (HCT-116): 35.7 µM (inactive)
GI50 (CCRF-CEM): 29.8 µM (inactive)

O=C(O)CCCCCCC[C@H]1S[C@H]1CCCCCCO
GI50 (KM12): > 100 µM (inactive)
GI50 (NCI-H23): > 100 µM (inactive)
GI50 (UO-31): > 100 µM (inactive)
GI50 (HL-60): > 100 µM (inactive)
GI50 (U-251): > 100 µM (inactive)
GI50 (SK-OV-3): > 100 µM (inactive)
GI50 (RPMI-8226): > 100 µM (inactive)
GI50 (UACC-62): > 100 µM (inactive)
GI50 (EKVX): > 100 µM (inactive)
GI50 (HOP-92): < 0.01 µM (active)
GI50 (HCC 2998): > 100 µM (inactive)
GI50 (HCT-116): > 100 µM (inactive)

N/C(=N\c1c([N+](=O)[O-])cnc2ccccc12)N1CCOCC1
GI50 (KM12): > 100 µM (inactive)
GI50 (SN12C): > 100 µM (inactive)
GI50 (NCI-H23): > 100 µM (inactive)
GI50 (NCI-H226): > 100 µM (inactive)
GI50 (UO-31): > 100 µM (inactive)
GI50 (HL-60): > 100 µM (inactive)
GI50 (U-251): > 100 µM (inactive)
GI50 (NCI-H522): > 100 µM (inactive)
GI50 (SK-OV-3): > 100 µM (inactive)
GI50 (RPMI-8226): > 100 µM (inactive)
GI50 (UACC-62): > 100 µM (inactive)
GI50 (NCI-H460): > 100 µM (inactive)
GI50 (EKVX): > 100 µM (inactive)
GI50 (SW-620): > 100 µM (inactive)
GI50 (SNB-75): > 100 µM (inactive)
GI50 (HCT-116): > 100 µM (inactive)
GI50 (CCRF-CEM): > 100 µM (inactive)
GI50 (A498): > 100 µM (inactive)

O=C(CC1(O)C(=O)Nc2c(Cl)cc(Cl)cc21)c1ccco1 (stereo unspecified)
GI50 (KM12): 32.7 µM (inactive)
GI50 (SN12C): 63.8 µM (inactive)
GI50 (NCI-H23): 56.1 µM (inactive)
GI50 (NCI-H226): 23.3 µM (inactive)
GI50 (UO-31): 98.2 µM (inactive)
GI50 (HL-60): 20.8 µM (inactive)
GI50 (U-251): > 100 µM (inactive)
GI50 (NCI-H522): 62.5 µM (inactive)
GI50 (SK-OV-3): > 100 µM (inactive)
GI50 (RPMI-8226): 23.1 µM (inactive)
GI50 (NCI-H460): 65.6 µM (inactive)
GI50 (EKVX): 59.2 µM (inactive)
GI50 (HOP-92): 36.6 µM (inactive)
GI50 (HCC 2998): 48.8 µM (inactive)
GI50 (SW-620): 50.4 µM (inactive)
GI50 (SNB-75): 29 µM (inactive)
GI50 (CCRF-CEM): 24.3 µM (inactive)

Cn1c2ccccc2c2ccc3c(c21)C(=O)C(c1ccccc1)=CC3=O
GI50 (KM12): 32.2 µM (inactive)
GI50 (SN12C): 17.3 µM (inactive)
GI50 (NCI-H23): 22.4 µM (inactive)
GI50 (NCI-H226): 11.7 µM (inactive)
GI50 (UO-31): 31.1 µM (inactive)
GI50 (HL-60): 14.4 µM (inactive)
GI50 (U-251): 36.8 µM (inactive)
GI50 (NCI-H522): 19.2 µM (inactive)
GI50 (SK-OV-3): 81.3 µM (inactive)
GI50 (RPMI-8226): 23.6 µM (inactive)
GI50 (NCI-H460): 9.27 µM (inactive)
GI50 (EKVX): 23.2 µM (inactive)
GI50 (HOP-92): 15.7 µM (inactive)
GI50 (HCC 2998): 24.5 µM (inactive)
GI50 (SNB-75): 9.31 µM (inactive)
GI50 (HCT-116): 14.5 µM (inactive)
GI50 (CCRF-CEM): 9.62 µM (inactive)

O=C(Nc1ccn(C2CC(O)C(COC(c3ccccc3)(c3ccccc3)c3ccccc3)O2)c(=O)n1)c1ccccc1 (stereo unspecified)
GI50 (KM12): 4.35 µM (inactive)
GI50 (SN12C): 1.89 µM (inactive)
GI50 (NCI-H23): 1.33 µM (inactive)
GI50 (NCI-H226): 11 µM (inactive)
GI50 (UO-31): 6.81 µM (inactive)
GI50 (HL-60): 2.61 µM (inactive)
GI50 (U-251): 3.5 µM (inactive)
GI50 (NCI-H522): 3.6 µM (inactive)
GI50 (SK-OV-3): 11.5 µM (inactive)
GI50 (RPMI-8226): 2.53 µM (inactive)
GI50 (UACC-62): 5.98 µM (inactive)
GI50 (NCI-H460): 2.03 µM (inactive)
GI50 (EKVX): 4.27 µM (inactive)
GI50 (HOP-92): 1.57 µM (inactive)
GI50 (HCC 2998): 7.36 µM (inactive)
GI50 (SW-620): 2.58 µM (inactive)
GI50 (SNB-75): 4.66 µM (inactive)
GI50 (HCT-116): 2 µM (inactive)
GI50 (CCRF-CEM): 2.79 µM (inactive)

Cc1cc(C)c(S(=O)(=O)N(CCCCCCN)OCCCN)c(C)c1
GI50 (KM12): 15.1 µM (inactive)
GI50 (SN12C): 19.6 µM (inactive)
GI50 (NCI-H23): 17.1 µM (inactive)
GI50 (NCI-H226): 19.6 µM (inactive)
GI50 (UO-31): 19.5 µM (inactive)
GI50 (HL-60): 12.3 µM (inactive)
GI50 (U-251): 16.2 µM (inactive)
GI50 (NCI-H522): 13 µM (inactive)
GI50 (SK-OV-3): 18.4 µM (inactive)
GI50 (RPMI-8226): 31.6 µM (inactive)
GI50 (UACC-62): 19.5 µM (inactive)
GI50 (NCI-H460): 15.6 µM (inactive)
GI50 (EKVX): 15.3 µM (inactive)
GI50 (HOP-92): 15.7 µM (inactive)
GI50 (HCC 2998): 16.6 µM (inactive)
GI50 (SW-620): 17.9 µM (inactive)
GI50 (SNB-75): 10.3 µM (inactive)
GI50 (HCT-116): 17.5 µM (inactive)
GI50 (CCRF-CEM): 16.1 µM (inactive)

CC1C(/C=C/c2ccoc2)ON2CCCC12 (stereo unspecified)
GI50 (SN12C): > 100 µM (inactive)
GI50 (NCI-H23): > 100 µM (inactive)
GI50 (NCI-H226): > 100 µM (inactive)
GI50 (UO-31): > 100 µM (inactive)
GI50 (HL-60): > 100 µM (inactive)
GI50 (U-251): > 100 µM (inactive)
GI50 (NCI-H522): > 100 µM (inactive)
GI50 (NCI-H460): > 100 µM (inactive)
GI50 (EKVX): > 100 µM (inactive)
GI50 (HOP-92): 17.8 µM (inactive)
GI50 (HCC 2998): > 100 µM (inactive)
GI50 (SW-620): > 100 µM (inactive)
GI50 (SNB-75): > 100 µM (inactive)

COc1ccc(-c2nc(-c3cnccn3)n(Cc3ccccc3)n2)cc1
GI50 (KM12): > 100 µM (inactive)
GI50 (SN12C): > 100 µM (inactive)
GI50 (NCI-H23): > 100 µM (inactive)
GI50 (UO-31): > 100 µM (inactive)
GI50 (HL-60): > 100 µM (inactive)
GI50 (U-251): > 100 µM (inactive)
GI50 (NCI-H522): > 100 µM (inactive)
GI50 (SK-OV-3): > 100 µM (inactive)
GI50 (RPMI-8226): > 100 µM (inactive)
GI50 (UACC-62): > 100 µM (inactive)
GI50 (NCI-H460): > 100 µM (inactive)
GI50 (HOP-92): > 100 µM (inactive)
GI50 (HCC 2998): > 100 µM (inactive)
GI50 (SW-620): > 100 µM (inactive)
GI50 (SNB-75): 47.9 µM (inactive)
GI50 (HCT-116): > 100 µM (inactive)
GI50 (CCRF-CEM): > 100 µM (inactive)

COc1ccc(CC2(O)C3CC4CCC2C4C3)cc1 (stereo unspecified)
GI50 (KM12): > 100 µM (inactive)
GI50 (SN12C): 77.4 µM (inactive)
GI50 (NCI-H23): 64.4 µM (inactive)
GI50 (NCI-H226): 88.1 µM (inactive)
GI50 (UO-31): 49.7 µM (inactive)
GI50 (HL-60): 51.1 µM (inactive)
GI50 (U-251): > 100 µM (inactive)
GI50 (NCI-H522): 88.3 µM (inactive)
GI50 (SK-OV-3): > 100 µM (inactive)
GI50 (RPMI-8226): > 100 µM (inactive)
GI50 (UACC-62): > 100 µM (inactive)
GI50 (NCI-H460): 68.5 µM (inactive)
GI50 (EKVX): 49.8 µM (inactive)
GI50 (HOP-92): 58.5 µM (inactive)
GI50 (SW-620): > 100 µM (inactive)
GI50 (SNB-75): 48.9 µM (inactive)
GI50 (CCRF-CEM): 42 µM (inactive)

COC(=O)C1OC2(CCCC3CC32)O[C@H]1C(=O)OC (stereo partly specified)
GI50 (KM12): > 100 µM (inactive)
GI50 (SN12C): > 100 µM (inactive)
GI50 (NCI-H23): > 100 µM (inactive)
GI50 (NCI-H226): > 100 µM (inactive)
GI50 (UO-31): > 100 µM (inactive)
GI50 (HL-60): > 100 µM (inactive)
GI50 (U-251): > 100 µM (inactive)
GI50 (NCI-H522): > 100 µM (inactive)
GI50 (SK-OV-3): > 100 µM (inactive)
GI50 (RPMI-8226): > 100 µM (inactive)
GI50 (UACC-62): > 100 µM (inactive)
GI50 (NCI-H460): 90.4 µM (inactive)
GI50 (EKVX): > 100 µM (inactive)
GI50 (HOP-92): 68.7 µM (inactive)
GI50 (HCC 2998): > 100 µM (inactive)
GI50 (SW-620): > 100 µM (inactive)
GI50 (SNB-75): > 100 µM (inactive)
GI50 (HCT-116): > 100 µM (inactive)
GI50 (CCRF-CEM): > 100 µM (inactive)

CCOc1cc(C=O)ccc1O [ETHYL VANILLIN]
GI50 (KM12): > 100 µM (inactive)
GI50 (SN12C): > 100 µM (inactive)
GI50 (NCI-H23): > 100 µM (inactive)
GI50 (NCI-H226): > 100 µM (inactive)
GI50 (UO-31): > 100 µM (inactive)
GI50 (HL-60): > 100 µM (inactive)
GI50 (U-251): > 100 µM (inactive)
GI50 (NCI-H522): > 100 µM (inactive)
GI50 (RPMI-8226): > 100 µM (inactive)
GI50 (NCI-H460): > 100 µM (inactive)
GI50 (EKVX): > 100 µM (inactive)
GI50 (HOP-92): > 100 µM (inactive)
GI50 (HCC 2998): > 100 µM (inactive)
GI50 (SW-620): > 100 µM (inactive)
GI50 (SNB-75): 95.1 µM (inactive)
GI50 (HCT-116): > 100 µM (inactive)
GI50 (CCRF-CEM): > 10 µM (inactive)
